Data: patent publication US9649382B2, “Topical bioadhesive formulations” (CAMURUS AB, priority 2005, dated 2017)
Structures can show the parent of a compound that is named as a salt.

Columns and labels:
[1] = Surface gel formation of chlorhexidine depots in situ; type: physicochemical; conditions: applied as a liquid, bioadhesive gel in situ
Excerpt: For topical bioadhesive, controlled release products for intraoral (including buccal & periodontal) administration; • i. benzydamine (local analgesic, anti inflammatory) or other local analgesic, analgesic, anti inflammatory, anti bacterial, anti fungal or combination thereof. Composition provides sustained effect at intraoral mucosa, in particular damaged, sensitised, infected mucosa e.g. in patients suffering from oral mucositis (induced by e.g. chemo- and radiotherapy). In particular for treatment of oral mucositis. • ii. tramadol (analgesic). […] Particularly for long acting effect in periodontal pocket.

[2] = Depot injected into rat periodontal pocket; type: in vivo; conditions: PC/GDO/EtOH/Gardol (34/51/10/5) injected into rat periodontal pocket
Protocol: In order to treat periodontitis or perimplantitis an antibacterial formulation is injected in the periodontal pocket, and a prolonged effect of the formulation is normally desired. […] The injected composition is observed to transform from the low viscous formulation, and which initially spreads out to fill voids, to form a solid mass by uptake of gingival fluids. An antibacterial depot system is thus provided.
This formulation is injected into the rat periodontal pocket.
Gardol is observed to remain at clinically effective levels in the GCF of the periodontal pockets for a prolonged period (several days).

[3] = SAXD nanostructure of lipid compositions hydrated with PBS; type: physicochemical; conditions: for API concentration at which the cubic Fd3m structure is not significantly altered / API concentration at which the cubic structure is completely lost / API concentration at which transformation into L2 solution begins: SPC/GDO 35/65, lipid/EtOH/PG 85/10/5, PBS
Protocol: Aqueous phase behavior was studied by hydrating non-aqueous lipid formulations with phosphate buffered saline (0.01 M phosphate buffer with 0.137 M NaCl and 0.002 M KCl, pH 7.4) at various weight ratios: 2:1, 1:1, 1:2 and 1:9. After brief vortexing, samples were left to equilibrate at room temperature for 1 week before X-ray diffraction measurements.
The nanostructure of hydrated lipid samples was studied using synchrotron small angle X-ray diffraction (SAXD). Measurements were performed at the 1911 beam-line at MAX-lab (Lund University, Sweden), using a Pilatus 1M 165 mm CCD detector with a resolution of 981×1043 pixels at a pixel size of 0.172 mm. The lipid samples were mounted between kapton windows in a steel sample holder at a sample-to-detector distance of 1312 mm. Diffractograms were recorded at the X-ray wavelength of 0.91 Å and a beam size of 0.25×0.25 mm (full width at the half maximum) at the sample. Temperature control within 0.1° C. was achieved using computer controlled Julabo heating circulator F12-MC (Julabo Labortechnik GMBH, Seelbach, Germany). When temperature effects were studied, the experiments were performed successively at 25° C., 37° C. and 42° C. with a 3-min exposure time at each temperature and a wait of 10 minutes between temperature steps. The resulting CCD images were integrated and analysed using the Fit2D software provided by Dr. A. Hammersley (http://www.esrf.fr/computing/scientific/FIT2D). Silver behanate calibrated sample-to-detector distance and detector positions were used.

[4] = stated as clinically effective level; cited from earlier work

Compound: N=C(NCCCCCCNC(=N)NC(=N)Nc1ccc(Cl)cc1)NC(=N)Nc1ccc(Cl)cc1.O=C(O)[C@H](O)[C@@H](O)[C@H](O)[C@H](O)CO.O=C(O)[C@H](O)[C@@H](O)[C@H](O)[C@H](O)CO [chlorhexidine gluconate]
- Surface gel formation time [1]: between 1 second and 5 min

Compound: CCCCCCCCCCCC(=O)N(C)CC(=O)[O-].[Na+] [Gardol, Glycine, N-methyl-N-(1-oxododecyl)-, sodium salt]
- time Gardol remains at clinically effective levels in the GCF of the periodontal pockets [2]: several days

Compound: CC1(C)O[C@@H]2C[C@H]3[C@@H]4CCC5=CC(=O)C=C[C@]5(C)[C@@]4(F)[C@@H](O)C[C@]3(C)[C@]2(C(=O)CO)O1 [TCA, triamcinolone acetonide]
- effect on formation and lattice dimensions of the cubic structure ([3]; SPC/GDO 35/65, lipid/EtOH/PG 85/10/5): very little effect
- API concentration at which the cubic Fd3m structure is not significantly altered [3]: ≥ 5 wt %

Compound: CCN(CC)CC(=O)Nc1c(C)cccc1C [LID, Lidocaine]
- API concentration at which the cubic Fd3m structure is not significantly altered [3]: ≤ 1.7 wt %
- API concentration at which the cubic structure is completely lost [3]: lower than 3 wt %
- API concentration at which transformation into L2 solution begins [3]: 2 wt %

Compound: chlorhexidine
- MIC [4]: 125 µg/mL

Compound: CN1C2CCCC1CC(NC(=O)c1nn(C)c3ccccc13)C2 (stereo not shown) [GRN, Granisetron hydrochloride]
- API concentration at which the cubic structure is completely lost [3]: about 1.5 wt %
- API concentration at which transformation into L2 solution begins [3]: 0.8 wt %

Compound: CN(C)CCCOc1nn(Cc2ccccc2)c2ccccc12 [BZD, benzydamine]
- phase formed at lipid formulation to PBS weight ratio of 1:1 ([3]; 3 wt % BZD, SPC/GDO 35/65): cubic Fd3m LC phase is formed
- effect on Fd3m LC phase at SPC/GDO weight ratio of 30/70 ([3]; 3 wt % of BZD, 25° C.): transforms into L2 solution
- API concentration at which the cubic Fd3m structure is not significantly altered [3]: up to 3.5 wt %
